For one data set, the system named is A2780. As to the kind of experiment: Antiproliferation assay A2780 (Assay 7). To be noted: A2780 cells, CellTiter-Glo, single determinations, read-out: IC50 Antiproli A2780. It counts as cell-based. On the procedure: (§1) Assessment of the Anti-Proliferative Effect of Compounds in Different Cell Lines
(§2) The impact of compounds on the proliferation of different cell lines was assessed using the CellTiter-Glo® Luminescent Cell Viability reagent from Promega (G7573).
(§3) In parallel, cells were plated in a reference (day 0) plate for time zero determination.
(§4) Rim wells were excluded. The cells were incubated for 72 h hours in a humidified incubator at 37° C. The day 0 plate was measured by adding 30 μL/well of CTG solution (CellTiter-Glo® Luminescent Cell Viability reagent, Promega G7573) to time zero wells in the reference plate followed by a 10 minutes incubation and luminescence reading at 0.1 ms. using the PHERAstar FS microplate reader (BMG Labtech).
(§5) After 72 h incubation, the treated plates were measured in the same way as the day 0 plate mentioned above.
For orientation: In ATP-based viability assays light output follows the ATP content of the culture.

Data set [1] relates to SUDHL10. As to the kind of experiment: Induction of caspase-3/7 activity, SUDHL10 (Assay 4). The format is cell-based. How it is done:
(§6) Induction of Caspase-3/7 Activity upon Treatment of Cells with Selected Compounds
(§7) The BH3-domain of MCL-1 sequesters pro-apoptotic proteins, thereby inhibiting apoptosis. In contrast, MCL-1 inhibitors are expected to antagonize this effect leading to an increase in apoptosis, which can be determined by measuring the activity of caspase-3/7.
(§8) The activity of caspase-3/7 was determined in DLBCL (Diffuse large B-cell lymphoma) cell lines (SUDHL5 and SUDHL10) upon treatment with different compounds, using the Caspase-Glo® 3/7 reagent from Promega (G8092).
(§9) Rim wells were excluded. The cells were incubated for 3 h hours in a humidified incubator at 37° C.
(§10) For the evaluation of the results, the background measured with “medium-only” was subtracted from all other values. […] The Bella DRC Master Sheet was used to calculate EC50s, with fixed C0=1 and Cl=plateau/max induction for the reference compound.

The subject of the next data set is AMO-1. Description: Antiproliferation assay AMO-1 (Assay 7). To be noted: AMO-1 cells, CellTiter-Glo, single determinations, read-out: IC50 Antiproli AMO-1. It counts as cell-based. On the procedure: as §1, §2, §3, §4, §5
The next data set addresses MCL-1 (Homo sapiens (Human), UniProt Q07820, K194A/K197A/R201A). As to the kind of experiment: Protein-protein interaction assay MCL-1/Noxa BH3 peptide (MCL-1 assay), TR-FRET. The format is binding. As to conditions: MCL-1/Noxa BH3 peptide TR-FRET; median. On the procedure:
Protein-Protein Interaction Assay: MCL-1/Noxa BH3 Peptide (MCL-1 Assay)
The dose-dependent inhibition by the compounds described in this invention of the interaction between MCL-1 and the BH3 domain of Noxa (both human) was determined using a steady state binding competition assay with time-resolved fluorescence energy transfer (TR-FRET) readout. For that purpose MCL-1 (amino acids 173-321, N-terminal fused to Maltose Binding Protein (MBP) SEQ ID 1)) and a synthetic Noxa BH3-derived peptide of sequence Biotin-PEG2-PEG2-PAELEVE-Nva-ATQLRRFGDKLNFRQKLL-amide (SEQ ID 2) served as protein receptor and tracer ligand respectively. The MBP-MCL-1 was purchased from Beryllium (Bedford, Mass., USA). The expression and purification of this protein construct has been described elsewhere (DOI:10.1371/journal.pone.0125010). The Noxa BH3-derived peptide can be obtained from e.g. Biosyntan (Berlin, Germany).
In the assay 11 different concentrations of each compound (0.1 nM, 0.33 nM, 1.1 nM, 3.8 nM, 13 nM, 44 nM, 0.15 μM, 0.51 μM, 1.7 μM, 5.9 μM and 20 μM) were typically measured as duplicates in the same microtiter plate. For that, 100-fold concentrated DMSO solutions were prepared by serial dilutions (1:3.4) of a 2 mM stock solution in a clear, 384-well microtiter plate (Greiner Bio-One, Frickenhausen, Germany). From there, 50 nl were transferred in a dark test plate (Greiner Bio-One, Frickenhausen, Germany). The assay was initiated by addition of 2 μl of a 2,5-fold concentrated MBP-MCL-1 solution (usually for a 1 nM end concentration in 5 μl reaction volume) in aqueous assay buffer [50 mM Tris/HCl pH 7, 100 mM sodium chloride (NaCl), 50 mM potassium fluoride (KF), 0.005% Tween-20, 2 mM DTT, 0.1% bovine gamma globulin (BGG)] to the compounds in the assay plate. This was followed by a 10-minute incubation step at 22° C. for pre-equilibration of the putative complex between MBP-MCL-1 and the compounds. After that, 3 μl of a 1.67-fold concentrated solution (in assay buffer) consisting of Noxa BH3-derived peptide (1 nM end concentration) and TR-FRET detection reagents [1.67 nM anti-MBP-Eu cryptate and 1.67 nM streptavidin-XL665 (both from Cisbio Bioassays, Codolet, France)], were added.
The mixture was incubated in the dark for one hour at 22° C. and then overnight at 4° C. The formation of MCL-1/Noxa complexes was determined by measuring the resonance energy transfer of the anti-MBP-Eu-cryptate antibody to the streptavidin-XL665 present in the reaction. For that purpose, the fluorescence emission at 620 nm and 665 nm after excitation at 330-350 nm was measured in a TR-FRET measuring instrument, for instance a Rubystar or a Pherastar (both from BMG Lab Technologies, Offenburg, Germany) or a Viewlux (Perkin-Elmer). The ratio of the emission at 665 nm and at 622 nm was used as indicator of the amount of MCL-1/NOXA complexes present.
The resulting data (ratio) were normalized, taking 0% inhibition as the mean value of control measurements (usually 32 data points) where all reagents were included. In this case 50 nl DMSO were used instead of compounds. A 100% inhibition corresponded to the mean value of control measurements (usually 32 data points) where all reagents except MCL-1 were included. IC50 values were determined by regression analysis based on a 4 parameter equation (minimum, maximum, IC50, Hill; Y=Max+(Min−Max)/(1+(X/IC50)^Hill) using the Screener Software (Genedata).

Data set [2] relates to SUDHL5. Description: Induction of caspase-3/7 activity, SUDHL5 (Assay 4). It counts as cell-based. On the procedure: as §6, §7, §8, §9, §10
Data set [3] has as its system SUDHL5. Description: Antiproliferation assay SUDHL5 (Assay 7). It counts as cell-based. On the procedure:
as §1, §2, §3, §4, §5

Data set [4] relates to SUDHL10. As to the kind of experiment: Induction of cytotoxicity, SUDHL10 (Assay 6). As to conditions: read-out: IC50 Cytotox SUDHL10 [M] (median), SUDHL10 cells, 5 h, CellTiter-Glo.
For data set [5], the system named is SUDHL5. As to the kind of experiment: Induction of cytotoxicity, SUDHL5 (Assay 6). To be noted: read-out: IC50 Cytotox SUDHL5 [M] (median), SUDHL5 cells, 5 h, CellTiter-Glo.
The subject of a further data set is MV-4-11. Description: Antiproliferation assay MV-4-11 (Assay 7). It counts as cell-based. To be noted: MV-4-11 cells, CellTiter-Glo, single determinations, read-out: IC50 Antiproli MV-4-11. On the procedure: as §1, §2, §3, §4, §5
The mark [6] stands for this setting: SUDHL10 cells, 3 h, Caspase-Glo 3/7; median.
Setting [7] is: SUDHL5 cells, 3 h, Caspase-Glo 3/7; median.
Setting [8] is: SUDHL5 cells, 72 h, CellTiter-Glo; median; read-out: IC50 Antiproli SUDHL5 [M] (median).
Where [9] appears, read: 72 h, trifluoroacetic acid salt.

Where “and” joins values, the source holds several entries; their conditions need not be identical. Equal values may be shown once. Where a name gives a salt, the structure may show the parent alone. Read-outs that look alike come from different tables or passages of the source.

Sequence of MCL-1 (Q07820 whole entry K194A/K197A/R201A, looked up): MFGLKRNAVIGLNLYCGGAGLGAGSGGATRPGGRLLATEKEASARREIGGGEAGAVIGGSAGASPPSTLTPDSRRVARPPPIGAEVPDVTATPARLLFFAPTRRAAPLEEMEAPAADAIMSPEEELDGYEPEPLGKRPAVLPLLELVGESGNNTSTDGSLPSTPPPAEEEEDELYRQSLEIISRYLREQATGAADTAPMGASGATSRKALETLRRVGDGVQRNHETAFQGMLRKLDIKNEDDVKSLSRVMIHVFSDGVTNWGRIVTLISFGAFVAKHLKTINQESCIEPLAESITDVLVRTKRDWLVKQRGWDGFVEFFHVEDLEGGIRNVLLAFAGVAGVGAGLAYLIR

Consider `CCc1nn(C)c2c1-c1c(F)ccc3c(CCCOc4cccc5cc(F)ccc45)c(C(=O)O)n(c13)CCCCOC2` (single isomer, unassigned; enantiomer 2) [Example 40, 3-ethyl-4-fluoro-7-{3-[(6-fluoronaphthalen-1-yl)oxy]propyl}-1-methyl-1,10,11,12,13,15-hexahydropyrazolo[4′,3′:9,10][1,6]oxazacycloundecino[8,7,6-hi]indole-8-carboxylic acid-N-ethylethanamine salt (enantiomer 2)], for which the IC50 is 29.6 µM in the data set with A2780 (72 h); greater than 33 µM in the data set with AMO-1 (72 h); 0.04 µM on MCL-1; 1.4e-05 M in the data set with SUDHL5 [3] (setting [8]); greater than 2.5e-05 M with SUDHL10 [4]; 2.3e-05 M with SUDHL5 [5]. Moreover, the IC50 in the data set on MV-4-11 (72 h) was 14.3 µM and 11.6 µM. In addition, the results for the EC50 in the data set on SUDHL10 [1] (setting [6]) and in the data set on SUDHL5 [2] (setting [7]) were greater than 33 µM and 21 µM, respectively.
As for `Cc1c2c(nn1C)CNCCCCn1c(C(=O)O)c(CCCOc3cccc4ccccc34)c3ccc(F)c-2c31` (racemic) [Example 47, (rac)-4-fluoro-2,3-dimethyl-7-[3-(1-naphthyloxy)propyl]-10,11,12,13,14,15-hexahydro-2H-pyrazolo[3′,4′:8,9][1,6]diazacycloundecino[10,11,1-hi]indole-8-carboxylic acid trifluoroacetic acid salt], the IC50 in the data set with A2780 (setting [9]) worked out at 18.9 µM; in the data set with A2780 (Homo sapiens, A2780, 72 h) it was 20.9 µM; on MCL-1, 0.00082 µM; in the data set on SUDHL5 [3] (Homo sapiens, SU-DHL-5; SUDHL5 cells, 72 h, CellTiter-Glo; median; read-out: IC50 Antiproli SUDHL5 [M] (median)), 2.1e-06 M; in the data set on SUDHL10 [4] (Homo sapiens, SU-DHL10, 5 h), 5.6e-06 M; in the data set on SUDHL5 [5] (Homo sapiens, SU-DHL-5, 5 h), 2.2e-06 M. Also, the IC50 with MV-4-11 (Homo sapiens, MV4-11, 72 h) was found to be 1.02 µM; in the data set on MV-4-11 (setting [9]), 1.32 µM. The EC50 in the data set on SUDHL10 [1] (Homo sapiens, SU-DHL10; SUDHL10 cells, 3 h, Caspase-Glo 3/7; median) worked out at 5 µM; in the data set on SUDHL5 [2] (Homo sapiens, SU-DHL-5; SUDHL5 cells, 3 h, Caspase-Glo 3/7; median), 1.4 µM.
In the case of `CCc1c2c(nn1C)COCCCCn1c(C(=O)O)c(CCCOc3ccc(F)c4ccccc34)c3ccc(F)c-2c31` (racemic) [Example 26, (rac)-12-ethyl-13-fluoro-1-(3-((4-fluoronaphthalen-1-yl)oxy)propyl)-11-methyl-4,5,6,7,9,11-hexahydropyrazolo[4′,3′:9,10][1]oxa[6]azacycloundecino[8,7,6-hi]indole-2-carboxylic acid], the IC50 is 10.2 µM in the data set on A2780 (Homo sapiens, A2780, 72 h); 4.31 µM in the data set on AMO-1 (Homo sapiens, AMO1, 72 h); 0.0014 µM on MCL-1; 2.2e-06 M with SUDHL5 [3] (Homo sapiens, SU-DHL-5, 72 h, SUDHL5 cells, CellTiter-Glo, median, read-out: IC50 Antiproli SUDHL5 [M] (median)); 3.7e-06 M in the data set on SUDHL10 [4] (Homo sapiens, SU-DHL10, 5 h); 1.8e-06 M with SUDHL5 [5] (Homo sapiens, SU-DHL-5, 5 h). Also, the concentration for a half-maximal effect (EC50) turned out to be 3.3 µM with SUDHL10 [1] (Homo sapiens, SU-DHL10, 3 h, SUDHL10 cells, Caspase-Glo 3/7, median) and 1.5 µM in the data set with SUDHL5 [2] (Homo sapiens, SU-DHL-5, 3 h, SUDHL5 cells, Caspase-Glo 3/7, median).
As to `CCc1c2c(nn1C)COCCCCn1c(C(=O)O)c(CCCOc3cccc4ccccc34)c3ccc(F)c-2c31` (single isomer, unassigned; enantiomer 2) [Example 8, 3-ethyl-4-fluoro-2-methyl-7-{3-[(naphthalen-1-yl)oxy]propyl}-2,10,11,12,13,15-hexahydro-pyrazolo[4′,3′:9,10][1,6]oxazacycloundecino[8,7,6-hi]indole-8-carboxylic acid-N-ethylethanamine salt (enantiomer 2)], the IC50 with A2780 (72 h, listed as 08) is 20 µM; against MCL-1, 0.026 µM; with SUDHL5 [3] (setting [8]), 1.5e-05 M; in the data set with SUDHL10 [4], greater than 3.3e-05 M; in the data set on SUDHL5 [5] it was 2.7e-05 M; with MV-4-11 (72 h, listed as 08) it was 21.3 µM. Also, the figures for the EC50 in the data set with SUDHL10 [1] (setting [6]) and in the data set on SUDHL5 [2] (setting [7]) were greater than 33 µM and 30 µM, respectively.
As to `Cc1c2c(nn1C)COCCCCn1c(C(=O)O)c(CCCOc3cccc4cc(F)ccc34)c3ccc(F)c-2c31` (single isomer, unassigned; enantiomer 2) [Example 14, 4-fluoro-7-{3-[(6-fluoronaphthalen-1-yl)oxy]propyl}-2,3-dimethyl-2,10,11,12,13,15-hexahydro-pyrazolo[4′,3′:9,10][1,6]oxazacycloundecino[8,7,6-hi]indole-8-carboxylic acid-N-ethylethanamine salt (enantiomer 2)], the IC50 with A2780 (72 h) was 19.8 µM; in the data set with AMO-1 (72 h), 7.54 µM and 11.6 µM; against MCL-1, 0.017 µM; with SUDHL5 [3] (setting [8]), 4e-06 M; in the data set with SUDHL10 [4] it was 1.2e-05 M; in the data set on SUDHL5 [5] it was 6e-06 M. Further, the EC50 with SUDHL10 [1] (setting [6]) was found to be 14 µM; with SUDHL5 [2] (setting [7]), 5.4 µM.

As a reminder, the IC50 is the concentration that gives 50% inhibition. The term EC50 denotes the concentration at which the effect is half-maximal. The low end stands for higher potency in that assay, the high end for lower potency in that assay.

The values are drawn from patent US11286263B2, “Macrocyclic fluorine substituted indole derivatives” (The Broad Institute, Inc., priority 2017, dated 2022).
